# In patent US20260317304A1, “TEAD INHIBITORS AND METHODS OF USE” (Sporos BioDiscovery, Inc., priority 2022, published 2026):
# What was measured:
# [1] = target: TEAD1 (Homo sapiens, UniProt P28347); assay: TEAD thermal shift assay (TSA); format: binding
# Source text: (§1) Thermal shift assay (TSA) is a biophysical method to evaluate stability of proteins with change in temperature. The assay measures thermal denaturation temperature in varying conditions such as different drug concentration. For this example, fluorogenic dye was used that bind to unfolded proteins. SYPRO Orange binds non-specifically to hydrophobic surfaces, and water strongly quenches its fluorescence. When the protein unfolds, the exposed hydrophobic surfaces bind the dye, resulting in an increase in fluorescence by excluding water. Detergent micelles also bind the dye and increase background noise dramatically. Binding of small molecules to proteins leads to a stabilization against to thermal denaturation with the degree of thermal stabilization proportional to the strength of binding.
# (§2) The study described in this example investigated the change in melting temperature (ΔTm) of TEAD isoforms 1-4 when treated with TEAD inhibitors.
# (§3) Tris-HCL was dissolved in 5 mL of Cell culture grade water and allowed to dissolve completely. The pH was adjusted to 8 using NaOH. Additional assay buffer components were added in the order listed above. The buffer was mixed slowly.
# (§4) Assay buffer was prepared according to the procedures outlined above and dispensed into test wells. Spyro orange was added to a concentration of 5× in the assay buffer, followed by test compound stock solution which was added to a concentration of 10 μM or 30 μM in the assay buffer.
# (§5) The melt cycle was performed in Bio-RAD PCR instrument from 20-95° C. with ramp rate of 1° C./min.
# [2] = target: TEAD4 (Homo sapiens, UniProt Q15561); assay: TEAD thermal shift assay (TSA); format: binding
# Source text: as §1, §2, §3, §4, §5
# [3] = target: TEAD2 (Homo sapiens, UniProt Q15562); assay: TEAD thermal shift assay (TSA); format: binding
# Source text: as §1, §2, §3, §4, §5
# [4] = target: TEAD3 (Homo sapiens, UniProt Q99594); assay: TEAD thermal shift assay (TSA); format: binding
# Source text: as §1, §2, §3, §4, §5
# [5] = tested on: NCI-H226 cells; assay: Proliferation and cell viability assay, Cell Titer One; format: cell-based, human; conditions: Cell Titer One assay, 6 days
# Procedure: Cell proliferation of a TEAD dependent NF2-null mesothelioma cell line, NCI-H226 was assayed using two different protocols. Results were confirmed in two different TEAD-non-dependent lung cancer cell lines, H23 and H28, were used as non-responsive controls, as indicated:
# b) Cell Titer One (Promega, #G3582). The effect of the TEAD inhibitors disclosed herein on cell proliferation was also determined using the Promega Substrate Cell Titer Aqueous One Solution Reagent. The TEAD inhibitors were evaluated for the effects on cell proliferation responder (H226) and non-responder negative control cancer cell lines (CAMA1, H28), as well as non-transformed normal human cells (HUVEC, NHDF). Dissociated cells were resuspend in media (depending on cell line, either in DMEM, RPMI, or EMEM all with 10% FBS, with gentamicin as an antibiotic). Cells were seeded at 100 μL/well at 750 cells per well in 96-well plates and allowed to settle and attach. After an incubation of 24 hrs (37° C., 5% CO2, humidified incubator), 100 μL of test compound-containing media was added. A dilution series of 2000× concentrated stock of test compounds was prepared in DMSO, for final concentrations from 0.1 to 10,000 nM. After addition of test compound-containing media, cells were incubated for 6 days at 37° C., 5% CO2, humidified incubators). To measure cell density, 20 μL of Promega Substrate Cell Titer 96 Aqueous One Solution Reagent (Promega, #G3582) to each well was added according to the manufacturer's instructions. Plates were incubated at 37° C. for usually 3-8 hrs, to reach in the control cells (without compound) an OD of 1.5 at 490 nm. The OD was measured using Vmax [Molecular Devices] spectrophotometer plate reader. Media only-wells were used as background controls and cell densities normalized to DMSO vehicle control. EC50 were taken as the concentration achieving 50% of maximal growth inhibition.
# For IC50 and EC50 data “A” indicates a value of less than 0.2 μM; the symbol “B” indicates a value in the range of from 0.2 μM up to 1 μM; and the symbol “C” indicates a value of greater than 1 μM. ND: no data.
# [6] = Ratio of Protein to Compound 1:1
# [7] = Ratio of Protein to Compound 1:3
# Chain of TEAD2 (Q15562 whole entry): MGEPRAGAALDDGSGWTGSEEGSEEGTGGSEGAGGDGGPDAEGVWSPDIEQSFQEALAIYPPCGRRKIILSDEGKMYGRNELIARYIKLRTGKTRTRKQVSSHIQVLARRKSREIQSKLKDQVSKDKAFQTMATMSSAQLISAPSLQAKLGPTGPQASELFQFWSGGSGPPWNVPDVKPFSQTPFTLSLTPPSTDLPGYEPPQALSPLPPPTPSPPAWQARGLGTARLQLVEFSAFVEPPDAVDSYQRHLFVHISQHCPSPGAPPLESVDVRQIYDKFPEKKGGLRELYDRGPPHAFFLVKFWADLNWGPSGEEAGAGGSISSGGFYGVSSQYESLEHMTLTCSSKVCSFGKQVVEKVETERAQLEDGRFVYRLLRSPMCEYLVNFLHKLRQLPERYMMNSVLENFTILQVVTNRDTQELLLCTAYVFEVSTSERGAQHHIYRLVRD
# Chain of TEAD4 (Q15561 whole entry): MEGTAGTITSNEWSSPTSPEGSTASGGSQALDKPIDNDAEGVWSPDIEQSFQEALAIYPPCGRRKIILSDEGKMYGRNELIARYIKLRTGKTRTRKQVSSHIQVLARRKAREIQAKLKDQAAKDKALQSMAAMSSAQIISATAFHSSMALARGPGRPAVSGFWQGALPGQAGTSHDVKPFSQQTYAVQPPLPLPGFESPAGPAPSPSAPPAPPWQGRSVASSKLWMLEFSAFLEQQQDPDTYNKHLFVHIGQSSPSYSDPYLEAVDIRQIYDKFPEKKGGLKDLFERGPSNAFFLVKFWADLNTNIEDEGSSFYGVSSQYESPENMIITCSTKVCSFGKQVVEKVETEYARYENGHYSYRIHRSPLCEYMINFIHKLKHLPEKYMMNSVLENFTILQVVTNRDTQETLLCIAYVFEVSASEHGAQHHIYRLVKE
# Chain of TEAD1 (P28347 whole entry): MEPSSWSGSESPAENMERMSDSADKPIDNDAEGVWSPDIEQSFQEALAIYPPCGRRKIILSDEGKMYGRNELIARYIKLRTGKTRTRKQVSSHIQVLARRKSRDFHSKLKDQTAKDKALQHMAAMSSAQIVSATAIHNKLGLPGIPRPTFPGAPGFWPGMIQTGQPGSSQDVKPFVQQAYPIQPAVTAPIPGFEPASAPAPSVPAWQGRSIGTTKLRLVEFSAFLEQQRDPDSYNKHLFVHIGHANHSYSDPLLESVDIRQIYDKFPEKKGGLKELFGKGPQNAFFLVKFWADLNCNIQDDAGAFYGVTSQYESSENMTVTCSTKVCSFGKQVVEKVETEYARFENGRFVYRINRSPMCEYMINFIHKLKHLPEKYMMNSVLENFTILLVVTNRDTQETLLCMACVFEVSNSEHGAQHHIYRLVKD
# Chain of TEAD3 (Q99594 whole entry): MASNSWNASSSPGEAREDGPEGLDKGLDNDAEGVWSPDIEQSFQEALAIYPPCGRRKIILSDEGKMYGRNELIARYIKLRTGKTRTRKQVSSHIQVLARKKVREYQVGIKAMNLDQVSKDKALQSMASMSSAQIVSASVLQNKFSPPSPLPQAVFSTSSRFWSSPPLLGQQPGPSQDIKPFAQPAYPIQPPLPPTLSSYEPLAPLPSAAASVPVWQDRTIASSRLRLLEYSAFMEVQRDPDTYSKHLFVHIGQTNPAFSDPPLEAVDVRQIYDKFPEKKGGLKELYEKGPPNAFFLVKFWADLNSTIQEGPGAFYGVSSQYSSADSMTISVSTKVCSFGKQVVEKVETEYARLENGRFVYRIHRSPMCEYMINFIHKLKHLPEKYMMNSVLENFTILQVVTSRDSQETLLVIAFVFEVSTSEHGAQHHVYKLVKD
"TEAD1 ΔTm [1, 6]","TEAD1 ΔTm [1, 7]","TEAD4 ΔTm [2, 6]","TEAD4 ΔTm [2, 7]","TEAD2 ΔTm [3, 6]","TEAD2 ΔTm [3, 7]","TEAD3 ΔTm [4, 6]","TEAD3 ΔTm [4, 7]","IC50 ([5]; Homo sapiens, NCI-H226, 144 h)",IC50 [5],SMILES
7 °C,10 °C,1.5 °C,7 °C,8.5 °C,11.5 °C,0 °C,0 °C,< 200 nM,–,"Cn1cnc(-c2cc([C@@]3(C)CCNC3=O)ccc2Nc2ccc(C(F)(F)F)cc2)c1 (single isomer, unassigned) [Compound 5, 3-methyl-3-(3-(1-methyl-1H-imidazol-4-yl)-4-((4-(trifluoromethyl)phenyl)amino)phenyl)pyrrolidin-2-one]"
–,–,–,–,–,–,–,–,–,< 200 nM,"Cn1cnc(-c2cc(C3(C)NC(=O)NC3=O)ccc2Nc2ccc(C(F)(F)F)cc2)c1 (single isomer, unassigned) [Compound 15, 5-methyl-5-(3-(1-methyl-1H-imidazol-4-yl)-4-((4-(trifluoromethyl)phenyl)amino)phenyl)imidazolidine-2,4-dione]"
